Measured values as given in US12064480B2, “Immunigenic alpha-branched trehalose-diesters” (GLAXOSMITHKLINE BIOLOGICALS SA, priority 2018, dated 2024).

Columns and labels:
[1] = tested on: mouse Raw cell line; experiment: Cytokine production (TNFα) from mouse Raw cells; type: cell-based; details: for TNFα potency in mouse cell line compared to human cells: mouse Raw cells vs human cells; for TNFα potency in mouse cell line compared to human cells / TNFα efficacy/peak levels relative to the other reference compounds / TNFα potency relative to sTDCM: FIG. 4A
Source text: The compounds were screened for their ability to induce TNFα from the mouse Raw cell line. An aim of this study was to determine if species specific differences in responses to compounds may be observed.

[2] = tested on: human PBMCs; experiment: Cytokine production from human PBMCs (Luminex multiplex panel); type: cell-based; details: human cells
Experimental: TDM (trehalose-6,6′-dimycolate) was obtained from Sigma. TDB (6,6′-dibehenoyl-α,α′-trehalose) was obtained from Avanti Polar Lipids. MMG (glycerol monomycolate) was prepared according to the procedure of Andersen et. al. sTDCM (synthetic trehalose dicorynomycolate) was obtained from Sigma-Aldrich (Catalog Number S3452).
PBMCs were obtained via leukapheresis from normal donors (AllCells, Berkeley, CA). Upon receipt PBMCs were repeatedly washed in 1×PBS and cryopreserved in freezing media (50% RPMI, 40% FCS, 10% DMSO) for future use. For assay, cells were immediately thawed into RPMI media, 10% heat inactivated FBS, 1× penicillin/streptomycin/glutamine (complete media), washed once and resuspended to the desired cell concentration in complete media. Cells were treated with the indicated compound concentrations by addition to plates containing serial dilution of the stock compound in diluent (50% isopropanol/50% isooctane). Compounds were applied, 20 ul final volume, to the bottom of a tissue culture plate and solvent was allowed to fully evaporate (i.e. plate coating) before cell addition.
Supernatants were harvested from treated cells 18-24 h post cell application. Supernatants were analyzed using a Luminex multiplex panel for analytes TNFα, IL-1β, IL-6, IFNγ, IL-12p70 and IL-23 per the manufacturer's instructions.

Row | Compound | TNFα potency in mouse cell line compared to human cells [1] | TNFα efficacy/peak levels relative to the other reference compounds ([1]; mouse Raw cells) | TNFα potency relative to sTDCM ([1]; mouse Raw cells) | MMG/sTDCM potency difference [2] [fold] | fold less potent than sTDCM ([1]; mouse Raw cells, TNFα) | TNFα induction (activity) ([1]; mouse Raw cells, FIG. 4)
1 | CCCCCCCCCCCCCCCCCCCCCC(=O)OC[C@H]1O[C@H](O[C@H]2O[C@H](COC(=O)CCCCCCCCCCCCCCCCCCCCC)[C@@H](O)[C@H](O)[C@H]2O)[C@H](O)[C@@H](O)[C@@H]1O [TDB, 6,6′-dibehenoyl-α,α′-trehalose] | more potent in the mouse cell line as compared to human cells | higher efficacy/peak levels | equivalent potency | – | – | –
2 | glycerol monomycolate [MMG] | – | equivalent levels | – | ~10 | over 100 fold | some activity
3 | trehalose-6,6′-dimycolate [TDM] | more potent in the mouse cell line as compared to human cells | higher efficacy/peak levels | equivalent potency | – | – | –
